Experimental findings from US20240317792A1, “CYCLIC DINUCLEOTIDE METAL COMPOUND, AND PREPARATION AND APPLICATION THEREOF” (HANGZHOU XINGAO BIOTECHNOLOGY CO., LTD., priority 2022, published 2024) are described below.

In one series the test system is IRI mice (male SD mice). The series is described as follows: Cerebral ischemia-reperfusion injury (IRI) model, TTC dyeing. Format: in vivo. The conditions noted are these: 2 h ischemia, 24 h reperfusion; caudal vein injection 5 mg/kg (Edaravone 6 mg/kg) after 30 min ischemia. Here is the method: Experimental animals: healthy male mice, weighing 280-300 grams, purchased from Shanghai SLAC Laboratory Animal Co. Ltd, with quality certificate No. (SCXK (Shanghai) 2007-0005), and kept in clean animal houses.
Establishment of a mouse cerebral ischemia model of mice and experimental method: 280-300 grams of male […] mice were selected for experiments. The male SD mice were subjected to fasting without water deprivation for 12 h before operation followed by weighing, numbering and random grouping. The male SD mice were anesthetized by intraperitoneal injection of 10 wt. % chloral hydrate at a dosage of 0.3 mL/100 g. After the male SD mice had no pain reflexes, they were subjected to neck skin preparation followed by being fixed on a dissecting table in supine position. After neck skins were disinfected with sterilized cotton balls, about 1 cm of the neck skins were cut in mid-cervical to expose subcutaneous tissues, and subcutaneous fat and the fascia were bluntly plucked with curved tweezers to expose neck muscle groups. The common carotid arteries and their upwardly internal and external carotid branches were visualized by opening the digastric muscle. The external, internal, and common carotid arteries were carefully dissected, and a thin wire was threaded under each of the three arteries, and homemade plastic spacers were placed under the common carotid arteries. The external carotid arteries and proximal ends of the common carotid arteries were ligated. After the internal common carotid arteries were clamped by arterial clips, the common carotid arteries were stuck into with homemade curved hooks followed by picking up and leading in monofilaments. The spacers were removed, and the monofilaments were gently pushed into the internal common carotid arteries and craniums. […] At this time, blood supplies of the middle cerebral arteries from the anterior cerebral arteries were blocked. Thin wires under the internal carotid arteries were ligated to secure the monofilaments to prevent the monofilaments from retreating. Excess thin wires were cut, penicillin was applied to wounds to prevent infection. The male SD mice were sutured and placed under a warm lamp to keep warm. Timing was performed when blood flows of the middle cerebral arteries were blocked by the monofilaments. After 2 hours, the monofilaments were gently pulled out and the black marks were seen, then reperfusion can be achieved.
Triphenyl tetrazolium chloride (TTC) dyeing: After being injured by 2 h cerebral ischemia and 24 h reperfusion, the male SD mice were anesthetized with 0.3 mL/100 g dosage of 10 wt. % of chloral hydrate by intraperitoneal injection and subjected to abdominal aorta bleeding to reduce influence of blood in brains. Then whole heads of the male SD mice were removed immediately after decapitating, and washed with normal saline followed by being promptly put into a −20° C. refrigerator to freeze for 20 min. Frozen brains were collected and subjected to coronal sections, each 2 mm of thickness, by a blade. Then the coronal sections were subjected to dark dyeing in a 2 wt. % of TTC solution for 20 min and fixing in a 4 wt. % of polyformaldehyde solution for 6 h followed by photographing. Then, Photoshop software was used to define area and calculate, and a formula was represented as a percentage of cerebral ischemic area=a total area of white area/a total area of ischemic hemisphere×100%.
Drug preparation and experimental grouping: Edaravone was used as a positive control drug, and an Edaravone injection was 30 mg/20 mL. A single dosage for each of the male SD mice was 0.4 mL/100 g, that is, 6 mg/kg. The cyclic dinucleotide metal compounds prepared in Examples 1-5 were prepared into […] injection drugs with the normal saline. Each of the male SD mice was subjected to caudal vein injection with 0.4 mL/100 g dosage of drugs, that is, 5 mg/kg. The male SD mice were divided into 8 groups (10 mice in each group). […]

Series [1] relates to mouse colorectal cancer cell line CT26. As for the experimental part: Experimental animals: BALB/c ordinary mice, male, weighing 20-22 grams, 7-8 weeks old, at SPF level, purchased from Shanghai SLAC Laboratory Animal Co. Ltd.
Tumour cell line herein was the mouse colorectal cancer cell line CT26 purchased from Chinese Academy of Sciences Cell Bank.
Establishment and intervention of tumor model mice: cells were subjected to culture and subculture, collected in the logarithmic phase and prepared as 1.0×10^7/mL of cell suspension. 0.2 mL of the cell suspension was injected armpits of forelegs of the mice (with a cell number of 2.0×10^6), and tumor transplantation was successful in about 7 days. The mice were randomly divided into 5 groups (10 mice in each group). […] The mice were subjected to administration by intraperitoneal injection with the volume of 200 μL per mice once every 2 days for 20 days. After 20 days, the mice were weighed and their blood was collected. Then the mice were killed, and the tumor were weighed. The formula of inhibitory rate of tumor was represented as inhibitory rate of tumor=[1-average tumor weight of experimental group/average tumor weight of the negative control group]×100%.

Setting [2] is: oxaliplatin 5 mg/kg alone or + 10 mg/kg compound, intraperitoneal once every 2 days, 20 days.
The mark [3] stands for this setting: peripheral blood after 20 days administration.
The mark [4] stands for this setting: serum after 20 days administration.

Turning to `CC1=NN(c2ccccc2)C(=O)C1` [Edaravone, reference compound], in the series on IRI mice (male SD mice), the “Average value of percentage of cerebral ischemic area” value is on record as 28.97%.

For the compound `O=C1[O][Pt]2([NH][C@@H]3CCCC[C@H]3[NH]2)[O]C1=O` [oxaliplatin], in series [1] (CT26, oxaliplatin 5 mg/kg alone or + 10 mg/kg compound, 20 days), the “Inhibitory rate (of tumor)” value is 78%. In series [1] (setting [2]), the Survival rate is reported as 50% and the Weight loss is 40%. Also, in series [1] (setting [3]), the Hemoglobin was 88 ± 9 g/L, the Platelets is given as 368 ± 56 × 10^3/μL, the Red blood cells was 4.51 ± 0.65 × 10^6/μL and the White blood cells is 3.87 ± 0.08 × 10^3/μL. In series [1] (setting [4]), this compound yielded an ALT of 118.25 ± 7.84 U/L and a Creatinine of 80.33 ± 4.65 µmol/L.
